ChEMBL document CHEMBL1140018, “Synthesis and structure-activity relationship of imidazo(1,2-a)thieno(3,2-e)pyrazines as IKK-beta inhibitors” (Bioorg Med Chem Lett, 2007)
Converted amounts (≈) assume the structure as drawn. The source made the active and inactive calls. No cut-off for these calls is given here.

Assays:
[1] = molecular target: T1, Inhibitor of nuclear factor kappa-B kinase subunit alpha (Homo sapiens, UniProt O15111)
T1 sequence (O15111 whole entry): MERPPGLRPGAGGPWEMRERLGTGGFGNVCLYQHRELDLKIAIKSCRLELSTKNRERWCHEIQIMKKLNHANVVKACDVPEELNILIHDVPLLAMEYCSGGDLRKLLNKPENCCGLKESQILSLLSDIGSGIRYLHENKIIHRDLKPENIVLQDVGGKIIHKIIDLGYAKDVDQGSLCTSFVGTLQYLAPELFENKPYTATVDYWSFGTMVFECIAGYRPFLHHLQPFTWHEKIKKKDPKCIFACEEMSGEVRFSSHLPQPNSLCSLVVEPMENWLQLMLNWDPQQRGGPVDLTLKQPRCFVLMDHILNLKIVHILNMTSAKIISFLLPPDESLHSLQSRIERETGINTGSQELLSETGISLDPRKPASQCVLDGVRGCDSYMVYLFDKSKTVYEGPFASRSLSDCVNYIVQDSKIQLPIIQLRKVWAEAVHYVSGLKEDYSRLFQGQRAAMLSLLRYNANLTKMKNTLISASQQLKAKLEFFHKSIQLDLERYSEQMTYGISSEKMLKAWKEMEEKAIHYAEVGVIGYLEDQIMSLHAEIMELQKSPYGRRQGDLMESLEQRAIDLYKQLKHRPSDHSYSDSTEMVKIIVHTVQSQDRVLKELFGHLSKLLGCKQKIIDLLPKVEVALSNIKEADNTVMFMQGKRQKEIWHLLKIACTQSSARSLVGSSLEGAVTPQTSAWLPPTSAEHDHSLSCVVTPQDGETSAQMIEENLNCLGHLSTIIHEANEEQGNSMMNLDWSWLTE

[2] = molecular target: T2, Inhibitor of nuclear factor kappa-B kinase subunit beta (Homo sapiens, UniProt O14920)
T2 sequence (O14920 whole entry): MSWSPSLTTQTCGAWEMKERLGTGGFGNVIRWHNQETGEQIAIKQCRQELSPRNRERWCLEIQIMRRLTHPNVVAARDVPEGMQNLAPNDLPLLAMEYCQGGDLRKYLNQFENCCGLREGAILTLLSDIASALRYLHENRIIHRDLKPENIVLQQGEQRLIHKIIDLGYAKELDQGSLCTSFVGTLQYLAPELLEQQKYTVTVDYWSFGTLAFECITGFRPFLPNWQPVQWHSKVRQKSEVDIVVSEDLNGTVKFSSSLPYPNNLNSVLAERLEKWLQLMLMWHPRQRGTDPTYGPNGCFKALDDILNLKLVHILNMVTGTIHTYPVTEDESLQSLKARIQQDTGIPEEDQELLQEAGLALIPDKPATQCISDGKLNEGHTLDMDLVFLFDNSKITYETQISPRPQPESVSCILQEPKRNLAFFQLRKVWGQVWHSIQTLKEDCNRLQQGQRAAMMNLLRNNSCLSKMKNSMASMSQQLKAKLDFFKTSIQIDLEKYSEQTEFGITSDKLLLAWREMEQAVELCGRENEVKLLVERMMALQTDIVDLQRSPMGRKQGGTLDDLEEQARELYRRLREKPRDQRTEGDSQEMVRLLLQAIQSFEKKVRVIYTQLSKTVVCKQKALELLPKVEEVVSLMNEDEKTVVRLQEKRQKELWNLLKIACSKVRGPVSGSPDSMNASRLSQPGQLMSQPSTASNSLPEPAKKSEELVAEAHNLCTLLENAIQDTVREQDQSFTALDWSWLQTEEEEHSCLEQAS

[3] = Cytotoxicity against Jurkat cells by Alamar blue assay; conditions: human, Jurkat cells
[4] = molecular target: T3, Inhibitor of nuclear factor kappa-B kinase subunit epsilon (Homo sapiens) (UniProt Q14164); assay: Inhibition of IKKepsilon
T3 sequence (whole entry): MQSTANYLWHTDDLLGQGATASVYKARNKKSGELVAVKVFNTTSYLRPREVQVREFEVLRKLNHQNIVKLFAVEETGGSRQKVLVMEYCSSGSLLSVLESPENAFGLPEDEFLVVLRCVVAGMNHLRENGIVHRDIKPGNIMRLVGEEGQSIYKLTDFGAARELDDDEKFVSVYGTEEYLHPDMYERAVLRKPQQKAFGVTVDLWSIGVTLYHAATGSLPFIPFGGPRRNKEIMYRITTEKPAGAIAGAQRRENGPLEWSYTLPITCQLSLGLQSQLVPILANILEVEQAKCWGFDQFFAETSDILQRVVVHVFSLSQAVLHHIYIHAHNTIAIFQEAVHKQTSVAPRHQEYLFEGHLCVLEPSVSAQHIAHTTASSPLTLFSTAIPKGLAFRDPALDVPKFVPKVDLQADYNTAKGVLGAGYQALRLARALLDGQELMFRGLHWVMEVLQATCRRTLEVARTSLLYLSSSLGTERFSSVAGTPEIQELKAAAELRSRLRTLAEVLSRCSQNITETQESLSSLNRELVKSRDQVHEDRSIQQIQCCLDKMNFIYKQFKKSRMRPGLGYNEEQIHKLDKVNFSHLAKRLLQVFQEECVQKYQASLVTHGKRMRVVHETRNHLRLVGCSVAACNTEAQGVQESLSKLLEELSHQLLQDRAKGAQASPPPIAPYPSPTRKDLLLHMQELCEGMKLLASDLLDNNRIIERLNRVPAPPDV

[5] = molecular target: MAP kinase p38 (Homo sapiens) (UniProt O15264+Q15759+Q16539+P53778); assay: Inhibition of p38; type: protein assay
[6] = molecular target: Epidermal growth factor receptor (Homo sapiens) (UniProt P00533); assay: Inhibition of Her1
Epidermal growth factor receptor (Homo sapiens), sequence (P00533 whole entry): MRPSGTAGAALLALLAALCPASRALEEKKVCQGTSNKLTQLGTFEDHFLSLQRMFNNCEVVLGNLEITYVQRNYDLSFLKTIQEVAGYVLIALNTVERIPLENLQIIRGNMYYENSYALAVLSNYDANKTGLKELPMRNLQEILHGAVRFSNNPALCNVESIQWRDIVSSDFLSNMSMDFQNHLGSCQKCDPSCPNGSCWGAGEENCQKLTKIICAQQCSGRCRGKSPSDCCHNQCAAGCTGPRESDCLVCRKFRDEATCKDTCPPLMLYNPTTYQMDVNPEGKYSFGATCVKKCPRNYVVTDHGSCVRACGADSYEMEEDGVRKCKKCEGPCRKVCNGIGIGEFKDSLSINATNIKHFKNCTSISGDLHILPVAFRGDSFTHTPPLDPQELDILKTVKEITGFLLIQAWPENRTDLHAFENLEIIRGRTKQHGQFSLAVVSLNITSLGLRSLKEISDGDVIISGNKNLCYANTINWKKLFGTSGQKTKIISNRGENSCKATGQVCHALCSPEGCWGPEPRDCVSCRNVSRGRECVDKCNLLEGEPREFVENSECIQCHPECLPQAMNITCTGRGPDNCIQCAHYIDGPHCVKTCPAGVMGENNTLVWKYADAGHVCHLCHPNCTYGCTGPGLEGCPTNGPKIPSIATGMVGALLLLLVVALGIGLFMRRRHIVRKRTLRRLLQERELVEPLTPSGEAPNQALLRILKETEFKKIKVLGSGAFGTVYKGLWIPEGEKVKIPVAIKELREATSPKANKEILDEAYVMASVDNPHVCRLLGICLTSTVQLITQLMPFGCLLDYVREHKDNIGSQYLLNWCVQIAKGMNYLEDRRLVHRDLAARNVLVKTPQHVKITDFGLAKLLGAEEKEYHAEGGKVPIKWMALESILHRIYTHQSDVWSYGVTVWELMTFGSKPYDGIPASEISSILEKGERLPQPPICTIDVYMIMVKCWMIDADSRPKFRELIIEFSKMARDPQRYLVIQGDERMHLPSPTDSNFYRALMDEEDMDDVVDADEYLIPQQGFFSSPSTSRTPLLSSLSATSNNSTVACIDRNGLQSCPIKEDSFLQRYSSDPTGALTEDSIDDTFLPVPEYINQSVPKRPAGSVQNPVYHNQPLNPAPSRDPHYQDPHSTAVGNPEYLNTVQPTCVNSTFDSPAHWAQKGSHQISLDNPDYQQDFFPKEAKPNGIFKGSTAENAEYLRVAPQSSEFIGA

[7] = molecular target: Receptor tyrosine-protein kinase erbB-2 (Homo sapiens) (UniProt P04626); assay: Inhibition of Her2
Receptor tyrosine-protein kinase erbB-2 (Homo sapiens), sequence (P04626 whole entry): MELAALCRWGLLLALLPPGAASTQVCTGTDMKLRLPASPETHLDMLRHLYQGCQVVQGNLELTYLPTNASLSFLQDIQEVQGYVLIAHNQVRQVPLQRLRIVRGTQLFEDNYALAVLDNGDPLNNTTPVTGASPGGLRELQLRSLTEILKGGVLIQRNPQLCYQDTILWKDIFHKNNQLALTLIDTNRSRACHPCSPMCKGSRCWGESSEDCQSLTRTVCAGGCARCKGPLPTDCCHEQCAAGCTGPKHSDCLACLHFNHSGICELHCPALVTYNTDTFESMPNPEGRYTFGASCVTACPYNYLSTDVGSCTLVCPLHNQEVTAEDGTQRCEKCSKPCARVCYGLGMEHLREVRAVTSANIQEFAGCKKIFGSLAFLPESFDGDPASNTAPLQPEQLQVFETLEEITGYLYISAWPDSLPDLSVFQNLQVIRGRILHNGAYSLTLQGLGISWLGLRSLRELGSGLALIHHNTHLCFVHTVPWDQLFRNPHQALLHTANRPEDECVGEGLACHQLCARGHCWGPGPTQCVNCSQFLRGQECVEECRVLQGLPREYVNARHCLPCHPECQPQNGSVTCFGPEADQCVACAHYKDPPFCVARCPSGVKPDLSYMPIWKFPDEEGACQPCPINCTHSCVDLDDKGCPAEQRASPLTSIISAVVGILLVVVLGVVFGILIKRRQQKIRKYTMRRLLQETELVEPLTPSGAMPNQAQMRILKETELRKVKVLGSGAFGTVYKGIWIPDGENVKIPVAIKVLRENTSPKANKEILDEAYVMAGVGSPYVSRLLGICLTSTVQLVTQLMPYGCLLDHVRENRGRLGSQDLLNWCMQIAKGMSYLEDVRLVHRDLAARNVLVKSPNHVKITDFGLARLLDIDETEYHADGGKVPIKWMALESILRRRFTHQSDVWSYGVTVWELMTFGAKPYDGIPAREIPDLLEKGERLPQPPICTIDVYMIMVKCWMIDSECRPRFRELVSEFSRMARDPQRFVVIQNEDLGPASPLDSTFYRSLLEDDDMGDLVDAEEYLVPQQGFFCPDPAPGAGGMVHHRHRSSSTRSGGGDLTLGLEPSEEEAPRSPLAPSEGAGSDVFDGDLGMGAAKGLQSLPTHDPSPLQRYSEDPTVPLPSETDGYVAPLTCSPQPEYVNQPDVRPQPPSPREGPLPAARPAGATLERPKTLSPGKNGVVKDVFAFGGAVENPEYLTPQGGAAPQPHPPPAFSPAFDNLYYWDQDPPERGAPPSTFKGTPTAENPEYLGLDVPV

[8] = molecular target: Tyrosine-protein kinase Lck (Homo sapiens) (UniProt P06239); assay: Inhibition of LCK
Tyrosine-protein kinase Lck (Homo sapiens), sequence (P06239 2-509 limits assumed): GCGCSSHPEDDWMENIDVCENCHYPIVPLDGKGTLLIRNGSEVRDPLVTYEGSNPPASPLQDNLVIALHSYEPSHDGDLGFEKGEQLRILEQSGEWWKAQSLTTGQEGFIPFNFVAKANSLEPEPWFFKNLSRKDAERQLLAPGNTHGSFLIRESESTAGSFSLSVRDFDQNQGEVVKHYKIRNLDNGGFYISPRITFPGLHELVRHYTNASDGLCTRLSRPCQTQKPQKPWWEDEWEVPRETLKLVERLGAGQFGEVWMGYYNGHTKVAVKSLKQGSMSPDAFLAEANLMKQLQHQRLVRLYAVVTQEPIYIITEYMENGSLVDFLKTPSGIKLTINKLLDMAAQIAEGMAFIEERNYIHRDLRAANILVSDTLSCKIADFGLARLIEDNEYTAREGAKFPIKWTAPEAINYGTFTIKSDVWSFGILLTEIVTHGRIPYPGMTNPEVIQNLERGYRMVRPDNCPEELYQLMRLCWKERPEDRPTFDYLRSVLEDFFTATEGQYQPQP

[9] = molecular target: T4, Tyrosine-protein kinase ITK/TSK (Homo sapiens) (UniProt Q08881); assay: Inhibition of EMT
T4 sequence (whole entry): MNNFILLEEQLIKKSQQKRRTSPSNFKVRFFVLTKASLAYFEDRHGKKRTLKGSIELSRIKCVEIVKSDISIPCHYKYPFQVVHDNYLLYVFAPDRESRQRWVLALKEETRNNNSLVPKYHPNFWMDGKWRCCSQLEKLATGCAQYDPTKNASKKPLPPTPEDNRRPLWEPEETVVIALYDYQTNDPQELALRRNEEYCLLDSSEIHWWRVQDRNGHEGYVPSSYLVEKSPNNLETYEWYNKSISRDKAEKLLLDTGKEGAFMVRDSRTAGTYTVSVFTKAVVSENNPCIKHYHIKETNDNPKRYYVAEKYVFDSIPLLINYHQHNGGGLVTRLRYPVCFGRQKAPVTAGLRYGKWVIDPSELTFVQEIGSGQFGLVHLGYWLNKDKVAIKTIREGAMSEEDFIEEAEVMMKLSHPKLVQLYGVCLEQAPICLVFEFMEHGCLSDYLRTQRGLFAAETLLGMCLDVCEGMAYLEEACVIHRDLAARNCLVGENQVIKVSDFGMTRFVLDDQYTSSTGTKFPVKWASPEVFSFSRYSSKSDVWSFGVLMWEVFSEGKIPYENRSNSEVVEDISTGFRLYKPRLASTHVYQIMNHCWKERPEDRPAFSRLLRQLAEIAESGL

Homo sapiens [10] = species on record: Homo sapiens; assay: Inhibition of VEGF
[11] = molecular target: Insulin-like growth factor 1 receptor (Homo sapiens) (UniProt P08069); assay: Inhibition of IGF1R
Insulin-like growth factor 1 receptor (Homo sapiens), sequence (P08069 31-736 limits assumed): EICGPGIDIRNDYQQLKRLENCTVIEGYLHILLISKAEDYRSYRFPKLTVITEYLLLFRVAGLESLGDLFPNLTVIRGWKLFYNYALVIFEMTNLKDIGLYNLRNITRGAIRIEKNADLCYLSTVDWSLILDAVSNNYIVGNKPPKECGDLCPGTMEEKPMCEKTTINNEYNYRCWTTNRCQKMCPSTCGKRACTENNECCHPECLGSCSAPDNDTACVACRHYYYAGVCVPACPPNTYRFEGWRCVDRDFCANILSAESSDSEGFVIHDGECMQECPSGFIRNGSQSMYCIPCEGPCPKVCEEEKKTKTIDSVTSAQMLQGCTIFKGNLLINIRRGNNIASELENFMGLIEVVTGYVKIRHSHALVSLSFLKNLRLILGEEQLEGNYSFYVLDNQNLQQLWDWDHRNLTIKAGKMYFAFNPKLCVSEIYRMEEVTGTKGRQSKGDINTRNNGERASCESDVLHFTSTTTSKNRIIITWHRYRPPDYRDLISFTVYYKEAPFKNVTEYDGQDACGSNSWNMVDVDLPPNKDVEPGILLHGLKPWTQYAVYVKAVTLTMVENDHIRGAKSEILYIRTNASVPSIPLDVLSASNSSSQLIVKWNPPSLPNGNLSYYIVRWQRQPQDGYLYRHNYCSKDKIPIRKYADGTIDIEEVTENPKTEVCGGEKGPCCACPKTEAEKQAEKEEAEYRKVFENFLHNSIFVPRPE
Insulin-like growth factor 1 receptor (Homo sapiens), sequence (P08069 741-1367 limits assumed): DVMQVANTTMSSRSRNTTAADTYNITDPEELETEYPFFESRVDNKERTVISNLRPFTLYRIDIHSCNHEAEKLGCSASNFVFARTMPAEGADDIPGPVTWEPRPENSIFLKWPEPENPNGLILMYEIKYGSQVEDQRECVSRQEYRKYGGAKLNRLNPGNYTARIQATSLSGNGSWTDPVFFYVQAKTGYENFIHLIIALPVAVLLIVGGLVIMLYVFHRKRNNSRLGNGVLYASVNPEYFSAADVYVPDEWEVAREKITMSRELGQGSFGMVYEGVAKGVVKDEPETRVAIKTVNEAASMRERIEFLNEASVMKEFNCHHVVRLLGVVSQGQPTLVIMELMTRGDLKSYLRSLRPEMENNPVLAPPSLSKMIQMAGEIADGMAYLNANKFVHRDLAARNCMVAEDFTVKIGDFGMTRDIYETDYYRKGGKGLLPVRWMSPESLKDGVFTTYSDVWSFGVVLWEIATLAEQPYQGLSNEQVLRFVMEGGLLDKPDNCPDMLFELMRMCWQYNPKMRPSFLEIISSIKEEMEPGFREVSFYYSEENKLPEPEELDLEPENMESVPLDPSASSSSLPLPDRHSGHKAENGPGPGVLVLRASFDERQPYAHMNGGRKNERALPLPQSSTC

Homo sapiens [12] = species on record: Homo sapiens; assay: Inhibition of PKA
Jurkat = assay: Inhibition of TNF-alpha-induced response in Jurkat cells; conditions: Homo sapiens
[13] = Aqueous solubility in sodium phosphate buffer at pH 6.5; type: physicochemical
Liver microsomes = assay: Metabolic stability in human liver microsomes; type: ADME, Microsome
Liver = assay: Metabolic stability in mouse liver microsomes; type: ADME, Microsome
[14] = Cmax in mouse at 10 mg/kg, po; type: ADME, organism-based; parameters: dose 10 mg/kg, route oral; conditions: in vivo
[15] = AUC(1 to 4 hrs) in mouse at 10 mg/kg, po; type: ADME, organism-based; parameters: time upper 4 hr, time lower 1 hr, dose 10 mg/kg, route oral; conditions: plasma
PBMC = assay: Inhibition of LPS-induced TNFalpha production in PBMC; type: functional, cell-based; conditions: Homo sapiens
Mus musculus [16] = assay: Reduction of LPS-induced TNFalpha release in mouse at 30 mg/kg administered 1 hr before LPS challenge; type: functional; parameters: scale not given: the % may be the effect or the level left
[17] = Drug level in LPS-challenged mouse serum at 30 mg/kg after 2.5 hrs; type: ADME, organism-based; parameters: dose 30 mg/kg; conditions: read-out: Activity
Mus musculus [18] = assay: Reduction of LPS-induced TNFalpha release in mouse at 30 mg/kg administered 4 hrs before LPS challenge; type: functional; parameters: scale not given: the % may be the effect or the level left
[19] = Drug level in LPS-challenged mouse serum at 30 mg/kg after 5.5 hrs; type: ADME, organism-based; parameters: dose 30 mg/kg; conditions: read-out: Activity
[20] = Tmax in mouse at 10 mg/kg, po; type: ADME, organism-based; parameters: dose 10 mg/kg, route oral; conditions: in vivo

SMILES | IC50 [1] [nM] | IC50 [2] [nM] | CC50 [3] [nM] | Activity [4] | Activity [5] | Activity [6] | Activity [7] | Activity [8] | Activity [9] | Activity (Homo sapiens [10]) | Activity [11] | Activity (Homo sapiens [12]) | EC50 (Jurkat) [nM] | solubility [13] [µg/mL] | Stability (Liver microsomes) [nmol/mg/min] | Stability (Liver) [nmol/mg/min] | Cmax [14] [µM] | AUC(0-t) [15] [µM·h] | EC50 (PBMC) [nM] | Tmax [20] [min] | other results
Cc1cnc2c(NCCN3CCCCC3)nc3cc(-c4ccccc4)sc3n12 | 3130 | 40 | 15000 | inactive | inactive | inactive | inactive | inactive | inactive | inactive | inactive | inactive | 13400 | – | – | – | – | – | – | – | –
Cc1cnc2c(NCCN)nc3cc(-c4ccccc4)sc3n12 | 910 | 22 | 77000 | inactive | inactive | inactive | inactive | inactive | inactive | inactive | inactive | inactive | > 100000 | – | – | – | – | – | – | – | –
CNC(=O)C(N)Cc1cccc(-c2cc3nc(NC)c4ncc(C)n4c3s2)c1 (racemic) | 330 | 36 | 68000 | – | – | – | – | – | – | – | – | – | 470 | 42 (≈ 106 µM) | – | – | – | – | – | – | –
Cc1ccc2nc(NCCN)c3ncc(C)n3c2c1 [BMS-345541] | – | – | 100000 | – | – | – | – | – | – | – | – | – | 13300 | – | < 0.01 | 0.016 | 1.4 | 3.8 | 800 | 30 | Activity (Mus musculus [16]): 82%; concentration at 2.5 h [17]: 7.6 µM; Activity (Mus musculus [18]): 70%; concentration at 5.5 h [19]: 4.2 µM
CNc1nc2cc(-c3cccc(CCNCC(N)=O)c3)sc2n2c(C)cnc12 | 390 | 13 | > 100000 | – | – | – | – | – | – | – | – | – | 1810 | – | 0.017 | 0.07 | 5.2 | 9.6 | 1370 | 60 | Activity (Mus musculus [16]): 49%; concentration at 2.5 h [17]: 14.3 µM; Activity (Mus musculus [18]): inactive; concentration at 5.5 h [19]: 2.1 µM
CNc1nc2cc(-c3ccccc3)sc2n2c(C)cnc12 | 1090 | 27 | > 100000 | inactive | inactive | inactive | inactive | inactive | inactive | inactive | inactive | inactive | 1350 | < 1 | – | – | – | – | – | – | –
CCNC(=O)C(N)Cc1cccc(-c2cc3nc(NC)c4ncc(C)n4c3s2)c1 (racemic) | 1010 | 590 | 71000 | – | – | – | – | – | – | – | – | – | 1050 | 44 (≈ 108 µM) | 0.069 | 0.145 | 8.6 | 9.89 | 140 | 30 | –
